target: Mucolipin-3 (Homo sapiens) (UniProt Q8TDD5); test: TRPML3 channel current activation, late-stage follow-up, orthogonal assay, HEK293, whole-cell patch clamp, -80 mV (AID 2694); conditions: at 10 µM, hits give low values
Sequence (Q8TDD5 whole entry, looked up): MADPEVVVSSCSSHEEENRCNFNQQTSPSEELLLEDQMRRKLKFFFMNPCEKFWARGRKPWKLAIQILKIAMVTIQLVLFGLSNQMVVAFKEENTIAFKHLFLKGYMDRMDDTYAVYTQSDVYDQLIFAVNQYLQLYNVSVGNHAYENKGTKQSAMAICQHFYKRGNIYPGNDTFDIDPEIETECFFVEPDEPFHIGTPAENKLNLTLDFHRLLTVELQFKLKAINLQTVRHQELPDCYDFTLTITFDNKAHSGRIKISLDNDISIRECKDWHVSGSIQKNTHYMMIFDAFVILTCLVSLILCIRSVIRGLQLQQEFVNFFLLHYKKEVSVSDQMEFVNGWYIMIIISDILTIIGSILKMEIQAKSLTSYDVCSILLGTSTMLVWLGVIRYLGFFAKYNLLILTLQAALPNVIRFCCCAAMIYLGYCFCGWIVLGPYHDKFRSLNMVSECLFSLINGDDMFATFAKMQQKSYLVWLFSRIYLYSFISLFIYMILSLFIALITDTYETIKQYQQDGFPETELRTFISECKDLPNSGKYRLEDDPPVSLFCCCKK

current density at -80 mV	Compound
-0.02 nA/pF	CC1CCN(S(=O)(=O)c2ccc(C(C)C)cc2)CC1
-0.19 nA/pF	CCOc1ccc(S(=O)(=O)N2CCCCCC2)c2ccccc12
-0.14 nA/pF	Cc1ccc(S(=O)(=O)n2nccc2-c2c(-c3ccc(Cl)cc3)noc2C)cc1

Reference: PubChem BioAssay AID2694 (The Scripps Research Institute Molecular Screening Center, 2010)
